Laboratory results reported in the supplement of paper PMC13380429.

What was measured:
Details in all cases: 72 h
[1] = system: Vero E6; experiment: relative viability EC50 (midpoint between 100% and the lowest measured viability); higher = less toxic
[2] = system: Caco-2; experiment: as above
[3] = system: Calu-3; experiment: as above
[4] = system: U2OS; experiment: as above
[5] = system: HepG2; experiment: as above
[6] = system: Vero E6; experiment: cell viability relative to DMSO; higher = less toxic
[7] = system: Caco-2; experiment: as above
[8] = system: Calu-3; experiment: as above
[9] = system: U2OS; experiment: as above
[10] = system: HepG2; experiment: as above
[11] = system: Vero E6; experiment: drug sensitivity score (DSS) for viability; higher = more toxic; extreme values may be limits of the assay
[12] = system: Caco-2; experiment: as above
[13] = system: Calu-3; experiment: as above
[14] = system: U2OS; experiment: as above
[15] = system: HepG2; experiment: as above

SMILES | relative viability EC50 [1] | relative viability EC50 [2] | relative viability EC50 [3] | relative viability EC50 [4] | relative viability EC50 [5] | cell viability ([6]; 1 nM) | cell viability ([6]; 10 nM) | cell viability ([6]; 100 nM) | cell viability ([6]; 1000 nM) | cell viability ([6]; 10000 nM) | cell viability ([7]; 1 nM) | cell viability ([7]; 10 nM) | cell viability ([7]; 100 nM) | cell viability ([7]; 1000 nM) | cell viability ([7]; 10000 nM) | cell viability ([8]; 1 nM) | cell viability ([8]; 10 nM) | cell viability ([8]; 100 nM) | cell viability ([8]; 1000 nM) | cell viability ([8]; 10000 nM) | cell viability ([9]; 1 nM) | cell viability ([9]; 10 nM) | cell viability ([9]; 100 nM) | cell viability ([9]; 1000 nM) | cell viability ([9]; 10000 nM) | cell viability ([10]; 1 nM) | cell viability ([10]; 10 nM) | cell viability ([10]; 100 nM) | cell viability ([10]; 1000 nM) | cell viability ([10]; 10000 nM) | drug sensitivity score [11] | drug sensitivity score [12] | drug sensitivity score [13] | drug sensitivity score [14] | drug sensitivity score [15]
CCc1cc(/C(C)=N/OCc2ccc(C3CCCCC3)c(C(F)(F)F)c2)ccc1CN1CC(C(=O)O)C1 [siponimod] | > 10 µM | > 10 µM | > 10 µM | > 10 µM | > 10 µM | 102% | 101% | 98.6% | 96.6% | 96.4% | 93.6% | 107% | 91.3% | 97.6% | 81.3% | 116% | 99.7% | 98.8% | 96.6% | 97.6% | 101% | 99.5% | 96.6% | 101% | 98.7% | 104% | 89.8% | 91.3% | 110% | 97.4% | 0 | 0.8 | 0 | 0 | 0
CCCCCCCC(=O)N[C@H](CN1CCCC1)[C@H](O)c1ccc2c(c1)OCCO2 [eliglustat] | > 10 µM | > 10 µM | > 10 µM | > 10 µM | > 10 µM | 97.3% | 91.6% | 84.3% | 84.2% | 85.5% | 103% | 96.7% | 95.1% | 99.8% | 99.8% | 98.7% | 98.3% | 96% | 99.5% | 93.2% | 101% | 95.4% | 97.8% | 94.6% | 95.3% | 100% | 109% | 95.8% | 108% | 92% | 3.1 | 0 | 0 | 0 | 0
CCOc1ccc(C[C@H]2NC(=O)CCSSC[C@@H](C(=O)N3CCC[C@H]3C(=O)N[C@@H](CCCN)C(=O)NCC(N)=O)NC(=O)[C@H](CC(N)=O)NC(=O)[C@H]([C@@H](C)O)NC(=O)[C@H]([C@@H](C)CC)NC2=O)cc1 [atosiban] | > 10 µM | > 10 µM | > 10 µM | > 10 µM | > 10 µM | 102% | 96.2% | 110% | 102% | 100% | 93.1% | 108% | 102% | 102% | 91.8% | 103% | 105% | 103% | 118% | 98.9% | 100% | 99.1% | 94.9% | 100% | 98.7% | 107% | 99.5% | 92.8% | 90.4% | 97.4% | 0 | 0 | 0 | 0 | 0
C=CCc1cc(OC)c(O)c(C(=O)NCCO)c1 [alibendol] | > 10 µM | > 10 µM | > 10 µM | > 10 µM | > 10 µM | 105% | 99.2% | 99.6% | 105% | 97.4% | 90.7% | 112% | 90.5% | 93% | 99.9% | 93.6% | 99.3% | 87.2% | 99.7% | 101% | 102% | 105% | 95% | 104% | 99.6% | 92.4% | 98.7% | 101% | 92.5% | 102% | 0 | 0 | 0 | 0 | 0
O=C1NC(c2ccccc2)(c2ccccc2)C(=O)N1COP(=O)(O)O [fosphenytoin] | > 10 µM | > 10 µM | > 10 µM | > 10 µM | > 10 µM | 110% | 84.9% | 102% | 106% | 94.6% | 97.6% | 102% | 86.3% | 104% | 105% | 89.4% | 97.3% | 90.4% | 87.7% | 102% | 98% | 98.5% | 101% | 95.1% | 102% | 97.1% | 92.7% | 100% | 109% | 91.4% | 0 | 0 | 0 | 0 | 0
CCCNC(C)C(=O)Nc1ccccc1C (stereo not given) [prilocaine] | > 10 µM | > 10 µM | > 10 µM | > 10 µM | > 10 µM | 101% | 98.9% | 92.2% | 99.8% | 96.9% | 95.1% | 100% | 99.1% | 102% | 97.3% | 89% | 102% | 95.5% | 94% | 101% | 100% | 108% | 99.3% | 105% | 96.9% | 113% | 91.9% | 102% | 96.2% | 98.8% | 0 | 0 | 0 | 0 | 0
Oc1cc(O)cc(O)c1 [phloroglucin] | > 10 µM | > 10 µM | > 10 µM | > 10 µM | > 10 µM | 101% | 102% | 98.6% | 103% | 101% | 113% | 91.5% | 104% | 91.6% | 104% | 104% | 105% | 113% | 90.1% | 98.8% | 101% | 98.3% | 98.7% | 98.2% | 98.7% | 103% | 104% | 91.8% | 99% | 104% | 0 | 0 | 0 | 0 | 0
